Results published in patent publication US20240246942A1, “KINASE INHIBITORS FOR THE TREATMENT OF NEURODEGENERATIVE DISEASES” (priority 2020, published 2024).

Legend:
Assay in all cases: biochemical
[1] = biological target: T1, panel of 374 wild-type kinases (Homo sapiens, UniProt Q16816); conditions: read-out: % Enzyme Activity (relative to DMSO controls), kinase PHKg1
T1 construct: purchased Reaction Biology Corporation

[2] = biological target: T2, panel of 374 wild-type kinases (Homo sapiens, UniProt Q99683); conditions: read-out: % Enzyme Activity (relative to DMSO controls), ASK1/MAP3K5
T2 construct: purchased Reaction Biology Corporation
T2 sequence (Q99683 1-1374): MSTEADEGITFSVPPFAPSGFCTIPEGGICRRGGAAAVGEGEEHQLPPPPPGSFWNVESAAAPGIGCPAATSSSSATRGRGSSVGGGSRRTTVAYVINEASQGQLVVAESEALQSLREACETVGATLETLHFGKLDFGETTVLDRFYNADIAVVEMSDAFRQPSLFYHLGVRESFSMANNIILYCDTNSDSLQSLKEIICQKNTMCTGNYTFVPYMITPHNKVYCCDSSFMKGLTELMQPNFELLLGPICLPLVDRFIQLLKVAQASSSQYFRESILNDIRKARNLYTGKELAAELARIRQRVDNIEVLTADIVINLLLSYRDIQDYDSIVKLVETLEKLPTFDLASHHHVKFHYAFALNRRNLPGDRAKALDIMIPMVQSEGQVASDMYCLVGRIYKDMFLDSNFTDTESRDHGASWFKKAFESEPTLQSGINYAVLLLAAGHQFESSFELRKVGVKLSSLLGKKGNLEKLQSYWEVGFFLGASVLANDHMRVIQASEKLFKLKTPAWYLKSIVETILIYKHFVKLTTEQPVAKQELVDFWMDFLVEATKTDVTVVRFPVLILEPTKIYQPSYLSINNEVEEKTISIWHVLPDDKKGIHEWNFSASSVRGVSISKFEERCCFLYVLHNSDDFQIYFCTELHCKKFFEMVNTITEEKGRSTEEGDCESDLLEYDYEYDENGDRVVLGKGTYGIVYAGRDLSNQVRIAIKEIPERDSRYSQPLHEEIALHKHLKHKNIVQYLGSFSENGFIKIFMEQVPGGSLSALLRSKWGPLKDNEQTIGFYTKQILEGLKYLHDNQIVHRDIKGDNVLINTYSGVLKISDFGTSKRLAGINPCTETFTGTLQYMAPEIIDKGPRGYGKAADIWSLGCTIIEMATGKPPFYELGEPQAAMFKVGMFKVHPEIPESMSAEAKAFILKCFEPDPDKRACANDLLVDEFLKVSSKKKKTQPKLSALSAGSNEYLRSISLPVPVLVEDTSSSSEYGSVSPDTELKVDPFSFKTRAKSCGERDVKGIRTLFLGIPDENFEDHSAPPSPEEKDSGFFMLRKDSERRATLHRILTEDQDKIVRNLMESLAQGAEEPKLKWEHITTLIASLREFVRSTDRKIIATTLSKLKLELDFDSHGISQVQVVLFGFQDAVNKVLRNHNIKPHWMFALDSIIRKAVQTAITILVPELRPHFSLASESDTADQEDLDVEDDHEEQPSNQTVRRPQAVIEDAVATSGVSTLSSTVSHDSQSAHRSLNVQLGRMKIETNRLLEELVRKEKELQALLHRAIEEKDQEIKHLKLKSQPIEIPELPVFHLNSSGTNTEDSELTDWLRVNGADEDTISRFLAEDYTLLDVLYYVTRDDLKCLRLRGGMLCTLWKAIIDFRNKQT

[3] = biological target: T3, panel of 374 wild-type kinases (Homo sapiens, UniProt Q13153); conditions: read-out: % Enzyme Activity (relative to DMSO controls), kinase PAK1
T3 construct: purchased Reaction Biology Corporation

[4] = biological target: T4, panel of 374 wild-type kinases (Homo sapiens, UniProt Q8TF76); conditions: read-out: % Enzyme Activity (relative to DMSO controls), Haspin
T4 construct: purchased Reaction Biology Corporation
T4 sequence (Q8TF76 1-798): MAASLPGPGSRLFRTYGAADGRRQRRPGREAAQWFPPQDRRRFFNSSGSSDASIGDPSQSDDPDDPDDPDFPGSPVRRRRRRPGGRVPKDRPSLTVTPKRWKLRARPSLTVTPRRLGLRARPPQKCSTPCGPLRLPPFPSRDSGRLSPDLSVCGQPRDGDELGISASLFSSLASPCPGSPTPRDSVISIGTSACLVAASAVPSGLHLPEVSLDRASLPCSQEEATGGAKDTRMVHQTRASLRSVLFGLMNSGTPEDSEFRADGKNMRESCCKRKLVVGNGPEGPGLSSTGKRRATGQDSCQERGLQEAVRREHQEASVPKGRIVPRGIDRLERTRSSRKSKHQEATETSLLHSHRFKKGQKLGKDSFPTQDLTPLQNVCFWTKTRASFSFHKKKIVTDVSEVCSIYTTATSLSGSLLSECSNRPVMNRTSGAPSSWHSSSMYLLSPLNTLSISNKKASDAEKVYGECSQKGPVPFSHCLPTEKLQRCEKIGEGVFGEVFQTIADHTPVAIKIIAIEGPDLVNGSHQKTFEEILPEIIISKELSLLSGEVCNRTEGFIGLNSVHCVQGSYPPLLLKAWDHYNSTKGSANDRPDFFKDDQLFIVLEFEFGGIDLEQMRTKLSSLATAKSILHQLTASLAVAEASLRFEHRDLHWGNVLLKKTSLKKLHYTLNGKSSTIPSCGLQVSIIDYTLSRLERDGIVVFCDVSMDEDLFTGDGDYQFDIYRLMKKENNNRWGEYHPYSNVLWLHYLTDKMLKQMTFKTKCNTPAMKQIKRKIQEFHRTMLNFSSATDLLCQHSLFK

T1 sequence (Q16816 whole entry): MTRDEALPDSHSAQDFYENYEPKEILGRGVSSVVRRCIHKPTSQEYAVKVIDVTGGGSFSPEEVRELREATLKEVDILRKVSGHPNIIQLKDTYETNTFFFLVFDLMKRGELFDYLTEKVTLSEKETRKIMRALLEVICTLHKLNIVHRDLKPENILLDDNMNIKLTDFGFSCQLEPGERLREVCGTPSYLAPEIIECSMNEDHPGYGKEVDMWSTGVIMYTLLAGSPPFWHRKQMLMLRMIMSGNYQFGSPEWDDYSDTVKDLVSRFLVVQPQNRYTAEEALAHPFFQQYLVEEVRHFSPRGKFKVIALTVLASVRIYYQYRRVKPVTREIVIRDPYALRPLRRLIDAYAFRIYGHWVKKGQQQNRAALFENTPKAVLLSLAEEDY
T3 sequence (Q13153 whole entry): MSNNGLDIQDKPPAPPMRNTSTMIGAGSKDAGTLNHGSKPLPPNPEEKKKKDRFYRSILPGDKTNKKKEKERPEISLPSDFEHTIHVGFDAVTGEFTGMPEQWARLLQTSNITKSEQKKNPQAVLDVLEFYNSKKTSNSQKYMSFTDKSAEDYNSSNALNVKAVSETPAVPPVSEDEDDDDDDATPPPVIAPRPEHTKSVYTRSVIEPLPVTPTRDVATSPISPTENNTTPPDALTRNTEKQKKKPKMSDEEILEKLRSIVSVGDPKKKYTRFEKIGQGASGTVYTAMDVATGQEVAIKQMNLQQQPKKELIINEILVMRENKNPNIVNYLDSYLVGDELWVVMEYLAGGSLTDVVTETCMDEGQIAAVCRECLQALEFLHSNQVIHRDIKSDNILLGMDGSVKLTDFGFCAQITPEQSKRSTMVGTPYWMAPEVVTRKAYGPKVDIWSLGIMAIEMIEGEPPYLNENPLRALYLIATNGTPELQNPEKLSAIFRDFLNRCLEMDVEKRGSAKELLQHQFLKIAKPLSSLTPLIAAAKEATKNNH

| SMILES | remaining activity at 5 µM [1] [%] | remaining activity at 5 µM [2] [%] | remaining activity at 5 µM [3] [%] | remaining activity at 5 µM [4] [%] | remaining activity at 10 µM ([1]; 10 uM) [%] | remaining activity at 10 µM ([2]; 10 uM) [%] | remaining activity at 10 µM ([3]; 10 uM) [%] | remaining activity at 10 µM ([4]; 10 uM) [%] |
| --- | --- | --- | --- | --- | --- | --- | --- | --- |
| O=C(Nc1cnn(-c2csc(C(=O)NC3COC3)c2)c1)Nc1ccccc1Cl [Compound 17, 4-(4-(3-(2-chlorophenyl)ureido)-1H-pyrazol-1-yl)-N-(oxetan-3-yl)thiophene-2-carboxamide] | 102 | 91.2 | 106 | 112 |  |  |  |  |
| O=C(Nc1cnn(-c2csc(C(=O)NC3COC3)c2)c1)Nc1c(F)cccc1Cl [Compound 25, 4-(4-(3-(2-chloro-6-fluorophenyl)ureido)-1H-pyrazol-1-yl)-N-(oxetan-3-yl)thiophene-2-carboxamide] | 91.2 | 91.1 | 81.2 | 111 |  |  |  |  |
| Cc1sc(C(=O)NC2COC2)cc1-n1cc(NC(=O)Nc2c(F)cccc2Cl)cn1 [Compound 27, 4-(4-(3-(2-chloro-6-fluorophenyl)ureido)-1H-pyrazol-1-yl)-5-methyl-N-(oxetan-3-yl)thiophene-2-carboxamide] |  |  |  |  | 84 | 94 | 104 | 92.4 |
